Results published in patent US8653075B2, “Therapeutic methods employing substituted piperidines which are CCR3 antagonists” (Boehringer Ingelheim International GmbH, priority 2009, dated 2014).

Molecular target: T1, human chemokine receptor CCR3 (Homo sapiens, UniProt P51677)
T1 construct: expressed in transfected cells; host or cells: K562 cell line (hCCR3-C1 cells), membrane preparation
T1 sequence (P51677 1-355): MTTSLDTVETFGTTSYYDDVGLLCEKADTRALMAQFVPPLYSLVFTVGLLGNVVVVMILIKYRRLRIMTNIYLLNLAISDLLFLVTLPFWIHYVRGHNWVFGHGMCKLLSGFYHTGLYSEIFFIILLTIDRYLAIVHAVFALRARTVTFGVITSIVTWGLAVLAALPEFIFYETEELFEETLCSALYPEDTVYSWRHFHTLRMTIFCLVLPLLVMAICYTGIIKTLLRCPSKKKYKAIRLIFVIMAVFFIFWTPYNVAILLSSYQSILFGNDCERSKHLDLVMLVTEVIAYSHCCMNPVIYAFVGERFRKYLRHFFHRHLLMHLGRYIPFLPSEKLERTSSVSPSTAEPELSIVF
Test: CCR3 receptor binding assay (SPA, 125I-eotaxin-1 displacement, hCCR3-C1 K562 cell membranes)
Settings: human Eotaxin-1 at human CCR3-Rezeptor; for inhibition at 1 µM: 1 μM test compound, read-out: CCR3 % inh @ 1 μM; for Ki: dose range 0.1 to 10000 nM
Description: The CCR3 receptor binding test is based on a K562 cell line (leukemia myelogenic blast cells) transfected with the human chemokine receptor CCR3 (hCCR3-C1 cells). The cell membranes were prepared by disrupting the hCCR3-C1 cells by […]. The preparation was centrifuged at 400 g 4° C. for 30 min. The supernatant was transferred into fresh tubes followed by a second centrifugation at 48000 g, 4° C. for 1 h. The membranes were re-suspended in the SPA incubation buffer (25 mM HEPES, 25 mM MgCl2 6×H2O, 1 mM CaCl2 2×H2O) without bovine serum albumin and homogenized by passing through a single use needle (Terumo, 23Gx1″). The membranes were stored in aliquots at −80° C.
The CCR3 receptor binding assay was performed in a Scintillation Proximity Assay (SPA) design with the radioligand recombinant human ^125Iodine-eotaxin-1. Cell membranes of hCCR3 C1 cells were again homogenized by passing through a single use needle (Terumo, 23Gx1″) and diluted in SPA incubation buffer in suitable concentrations (0.5-10 μg protein/well) in 96 well microtiter plates (1450-514, Perkin Elmer). The SPA assay was set up in the SPA incubation buffer with a final volume of 200 μl and final concentration of 25 mM HEPES, 25 mM MgCl2 6×H2O, 1 mM CaCl2 2×H2O and 0.1% bovine serum albumin. The SPA assay mixture contained 60 μl of the membrane suspension, 80 μl of Wheat Germ Agglutinin coated PVT beads (organic scintillator, GE Healthcare, RPNQ-0001) 0.2 mg/well), 40 μl of recombinant human ^125Jodine-eotaxin-1 (Biotrend), diluted in SPA buffer to a final concentration of 30.000 dpm per well, and 20 μl of the test compound (dissolved in DMSO dilutions). The SPA assay mixture was incubated for 2 h at room temperature. Bound radioactivity was determined with a scintillation counter (Micro Beta “Trilux”, Wallac). Included were controls for total binding (no displacer added, Bo) and non-specific binding (NSB) by adding unlabelled recombinant human Eotaxin-1 (Biotrend, Cat #300-21) or a reference compound.
Determination of the affinity of a test compound was calculated by subtraction of the non-specific binding (NSB) from the total binding (Bo) or the binding in the presence of the test compound (B) at a given compound concentration. […] The Bo-NSB value was set to 0% inhibition.
% inhibition and Ki values are (human Eotaxin-1 at human CCR3-Rezeptor): […]

| Structure (SMILES) | inhibition at 1 µM | Ki |
| --- | --- | --- |
| COc1cccc2c1CCN(C(=O)[C@@H]1CCC(=O)N1C1CCN(Cc3ccc(Cl)c(C)c3)CC1)C2 [Example 71] | 49% | 810 nM |
| Cc1nc(C2(NC(=O)[C@@H]3CCC(=O)N3C3CCN(Cc4ccc(Cl)c(C)c4)CC3)CCCC2)no1 [Example 51] | 30% | 1620 nM |
| Cc1cc(CN2CCC(N3C(=O)CC[C@@H]3C(=O)N3CCc4c(cccc4C(F)(F)F)C3)CC2)ccc1Cl [Example 65] | 57% | 602 nM |
| Cc1cc(CN2C3CCC2CC(N2C(=O)CC[C@@H]2C(=O)Nc2cccc(N(CC(=O)N4CCC4)S(C)(=O)=O)c2)C3)ccc1Cl (stereo partly drawn) [Example 75] | 97% | 30 nM |
| CCOC(=O)Cc1csc(NC(=O)[C@H]2CCC(=O)N2C2CCN(Cc3ccc(Cl)c(C)c3)CC2)n1 [Example 98] | 75% | 202 nM |
| CNC(=O)N1CCc2cc(NC(=O)[C@H]3CCC(=O)N3C3CCN(Cc4ccc(Cl)c(C)c4)CC3)ccc21 [Example 37] | 80% | 175 nM |
| CCNS(=O)(=O)c1cccc(NC(=O)[C@H]2CCC(=O)N2C2CC3CCC(C2)N3Cc2ccc(Cl)c(C)c2)c1 (stereo partly drawn) [Example 80] | 95% | 55 nM |
| COC(=O)CC(NC(=O)[C@@H]1CCC(=O)N1C1CCN(Cc2ccc(Cl)c(C)c2)CC1)c1ccccn1 (stereo partly drawn) [Example 97] | 50% | 669 nM |
| Cc1cc(CN2CCC(N3C(=O)N(C)C[C@H]3C(=O)Nc3cccc(-c4nc[nH]n4)c3)CC2)ccc1Cl [Example 126] | 89% | 71 nM |
| Cc1cc(CN2CCC(N3C(=O)CC[C@H]3C(=O)Nc3cccc(Cc4ccncc4)c3)CC2)ccc1Cl [Example 66] | 81% | 658 nM |
| Cc1cc(CN2CCC(N3C(=O)CC[C@@H]3C(=O)Nc3cccc(CNC(=O)NC4CCCCC4)c3)CC2)ccc1Cl [Example 39] | 80% | 227 nM |
| Cc1cc(CN2CCC(N3C(=O)CC[C@H]3C(=O)NCc3noc(C4CCCC4)n3)CC2)ccc1Cl [Example 47] | 31% | 1190 nM |
| Cc1cc(CN2CCC(N3C(=O)CC[C@@H]3C(=O)Nc3cc(-c4nc[nH]n4)ccn3)CC2)ccc1Cl [Example 211] | 93% | 48 nM |
| Cc1nccc(-c2cccc(NC(=O)[C@H]3CCC(=O)N3C3CC4CCC(C3)N4Cc3ccc(Cl)c(C)c3)c2)n1 (stereo partly drawn) [Example 86] | 65% | 419 nM |
| CCNC(=O)c1cc(NC(=O)[C@H]2CCC(=O)N2C2CCN(Cc3ccc(Cl)c(C)c3)CC2)ccc1C [Example 165] | 90% | 62 nM |
| CNC(=O)c1cccc(NC(=O)[C@H]2CCC(=O)N2C2CCN(Cc3ccc(Cl)s3)CC2)c1 [Example 206] | 77% | 357 nM |
| Cc1cc(CN2CCC(N3C(=O)N(C)C[C@H]3C(=O)Nc3cc(C4CC4)nn3C)CC2)ccc1Cl [Example 209] | 95% | 33 nM |
| Cc1cc(CN2CCC(N3C(=O)CC[C@@H]3C(=O)NCc3cccc4[nH]ccc34)CC2)ccc1Cl [Example 68] | 48% | 715 nM |
| CNc1nc(-c2cccc(NC(=O)[C@H]3CN(C)C(=O)N3C3CCN(Cc4ccc(Cl)c(C)c4)CC3)c2)no1 [Example 122] | 95% | 30 nM |
| Cc1cc(CN2CCC(N3C(=O)CC[C@H]3C(=O)NCc3ccnn3C)CC2)ccc1Cl [Example 45] | 50% | – |
| Cc1cc(CN2CCC(N3C(=O)CC[C@H]3C(=O)NCc3ccccc3OC(F)F)CC2)ccc1Cl [Example 38] | 78% | 211 nM |
| Cc1cc(CN2CCC(N3C(=O)CC[C@@H]3C(=O)N3CCc4c(F)cccc4C3)CC2)ccc1Cl [Example 59] | 66% | 402 nM |
| CCOC(=O)c1cc(NC(=O)[C@H]2CCC(=O)N2C2CCN(Cc3ccc(Cl)c(C)c3)CC2)no1 [Example 93] | 95% | 29 nM |
| CCOC(=O)c1nnc(NC(=O)[C@H]2CCC(=O)N2C2CCN(Cc3ccc(Cl)c(C)c3)CC2)s1 [Example 3] | 75% | 240 nM |
| CNC(=O)c1cccc(NC(=O)[C@H]2CCC(=O)N2C2CC3CCC(C2)N3Cc2ccc(Cl)c(C)c2)c1 (stereo partly drawn) [Example 84] | 77% | 232 nM |
| COC(=O)c1ccc2c(c1)CCN(C(=O)[C@H]1CCC(=O)N1C1CCN(Cc3ccc(Cl)c(C)c3)CC1)C2 [Example 96] | 51% | 670 nM |

The remaining molecules from weak to strong by Ki, led by results:

| inhibition at 1 µM | Ki | Structure (SMILES) |
| --- | --- | --- |
| 96% | 28 nM | Cc1cc(CN2CCC(N3C(=O)CC[C@@H]3C(=O)Nc3cccc(-c4c[nH]cn4)c3)CC2)ccc1Cl [Example 27] |
| 96% | 24 nM | CCn1cc(NC(=O)[C@H]2CCC(=O)N2C2CCN(Cc3ccc(Cl)c(C)c3)CC2)cc1C(=O)N1CCCC1 [Example 164] |
| 97% | 20 nM | Cc1cc(CN2CCC(N3C(=O)CC[C@@H]3C(=O)Nc3cccc(C(=O)NC[C@@H]4CCCO4)c3)CC2)ccc1Cl [Example 162] |
| 99% | 19 nM | CNC(=O)c1cc(Cl)cc(NC(=O)[C@H]2CCC(=O)N2C2CCN(Cc3ccc(Cl)c(C)c3)CC2)c1 [Example 169] |
| 80% | 18 nM | Cc1cc(C(=O)N(C)C)cc(NC(=O)[C@H]2CCC(=O)N2C2CCN(Cc3ccc(Cl)c(Cl)c3)CC2)n1 [Example 115] |
| 100% | 17 nM | CNC(=O)c1cc(C)cc(NC(=O)[C@H]2CCC(=O)N2C2CCN(Cc3ccc(Cl)c(C)c3)CC2)c1 [Example 142] |
| 99% | 8 nM | Cc1cc(CN2CCC(N3C(=O)CC[C@@H]3C(=O)Nc3cccc(C(=O)NCC(F)F)c3)CC2)ccc1Cl [Example 145] |
| 100% | 8 nM | Cc1cc(CN2CCC(N3C(=O)CC[C@@H]3C(=O)Nc3cccc(C(=O)N4CCCC4)c3)CC2)ccc1Cl [Example 146] |
| 100% | 7 nM | CCOC(=O)c1sc(NC(=O)[C@H]2CCC(=O)N2C2CCN(Cc3ccc(Cl)c(C)c3)CC2)nc1C [Example 100] |
| 94% | 6 nM | Cc1cc(CN2CCC(N3C(=O)CC[C@@H]3C(=O)Nc3cccc(C(=O)N(C)C)c3)CC2)ccc1Cl [Example 141] |
| 100% | 6 nM | Cc1cc(CN2CCC(N3C(=O)CC[C@@H]3C(=O)Nc3cc(C(=O)N(C)CCO)cc(C(C)(C)C)c3)CC2)ccc1Cl [Example 170] |
| 98% | 6 nM | Cc1cc(C(=O)N2CCOCC2)cc(NC(=O)[C@H]2CCC(=O)N2C2CCN(Cc3ccc(Cl)c(C)c3)CC2)n1 [Example 140] |
| 100% | 6 nM | CNC(=O)c1sc(NC(=O)[C@H]2CCC(=O)N2C2CCN(Cc3ccc(Cl)c(C)c3)CC2)nc1C [Example 190] |
| 99% | 5 nM | CCNS(=O)(=O)c1cccc(NC(=O)[C@H]2CCC(=O)N2C2CCN(Cc3ccc(Cl)c(C)c3)CC2)c1 [Example 4] |
| 98% | 4 nM | COC(=O)c1cc(NC(=O)[C@H]2CCC(=O)N2C2CCN(Cc3ccc(Cl)c(C)c3)CC2)cc(C(=O)N(C)C)c1 [Example 108] |
| 101% | 4 nM | CCC(C)N(C)C(=O)c1cccc(NC(=O)[C@H]2CCC(=O)N2C2CCN(Cc3ccc(Cl)c(C)c3)CC2)c1 (stereo partly drawn) [Example 138] |
| 98% | 1 nM | Cc1cc(CN2CCC(N3C(=O)CC[C@@H]3C(=O)Nc3cc(C(=O)N(C)C)cc(-c4nnnn4C)c3)CC2)ccc1Cl [Example 185] |
| 99% | 1 nM | Cc1cc(CN2CCC(N3C(=O)CC[C@@H]3C(=O)Nc3cc(C(=O)N(C)CCO)cc(-c4nnnn4C)c3)CC2)ccc1Cl [Example 186] |
